Experimental data from patent US7053043B1, “Pharmaceutical compositions comprising synthetic peptide copolymers and methods for preventing and treating GVHD and HVGD” (Yeda Research and Development Co.Ltd., priority 1999, dated 2006).

Tests used:
[1] = test system: presentation of BALB/c minor H antigens by B10.D2 APC to B10.D2 responder T cells; assay: Proliferative responses to minor H antigens, APC pre-pulsed with Cop 1 and washed; format: cell-based, mice; details: washed
Description: B10.D2 mice were injected ip. with irradiated (20 Gy) BALB/c spleen cells 72 hours prior to the assay. B10.D2 spleen cells were harvested, depleted of red blood cells (RBC) and used as irradiated (10 Gy) antigen-presenting cells (APC) presenting BALB/c mH antigens. For the primary assay, APC were plated at 2.5×10^5 cells per well in 96-well round-bottom plates and incubated with 2.5×10^5 nylon-wool-enriched responder T cells (>88% CD3^+ by FACS analysis) from naive B10.D2 mice in the presence or absence of increasing concentrations of Copolymer 1 (2.5–80 μg/well). After 96 hours of incubation, cells were pulsed with 1 μCi [^3H]-thymidine for an additional 16 hours before harvesting. In the secondary assay, irradiated APC were plated at 2.5×10^5 cells/well in 96-well round-bottom plates, preincubated for 24 hours at 37° C. with increasing concentrations of GLAT (2.5–80 μg/well) or with medium alone, and thereafter washed three times before the addition of 2.5×10^5 nylon-wool-enriched responder T cells from naive B10.D2 mice. Culture medium was RPMI 1640, supplemented with 10% pre-screened fetal calf serum, 2 mM glutamine, 50 μM 2-mercaptoethanol, 100 U/ml penicillin, and 100 μg/ml streptomycin.
[…] Results are expressed as cpm from triplicate cultures. Standard deviations were <20% of the mean. Culture medium was RPMI 1640, supplemented with 10% pre-screened fetal calf serum, 2 mM glutamine, 50 μM 2-mercaptoethanol, 100 U/ml penicillin, and 100 μg/ml streptomycin.

[2] = test system: T cell proliferation in MHC-disparate mixed lymphocyte cultures; assay: Mixed lymphocyte cultures across major histocompatibility barriers, six MHC-disparate strain combinations; format: cell-based, mice
Description: Responder cells for MLR reactions across major histocompatibility barriers were harvested from spleen of non-immunized mice while responder cells for MLR across minor histocompatibility barriers were harvested from mice which were preimmunized with irradiated (30 Gy) 50×10^6 stimulator spleen cells 21 days before. Responder cells (5×10^5 spleen cells per well) were tested for their proliferative response by plating with different amounts (2.5 to 10×10^5) of irradiated stimulator cells, in presence or absence of various peptide inhibitors (10–100 μg per well). Cultures were set up in 200 μl media containing 10% FCS in flat-bottom microtiter plates. After 4 days of incubation, cultures were pulsed with 1 μCi of [^3H]thymidine for an additional 16 hours. Results are represented as mean counts per minute (cpm) thymidine incorporation from triplicate cultures.

## Glatiramer acetate [Cop 1]
[1]; APC pre-pulsed 24 hours with Cop 1 1.5 μg (Batch II)
  cpm (Cop 1 Pulsing Concentration): 15,533 cpm
[1]; APC pre-pulsed 24 hours with Cop 1 5 μg (Batch II)
  cpm (Cop 1 Pulsing Concentration): 12,377 cpm
[1]; APC pre-pulsed 24 hours with Cop 1 10 μg (Batch II)
  cpm (Cop 1 Pulsing Concentration): 11,425 cpm
[1]; APC pre-pulsed 24 hours with Cop 1 20 μg (Batch II)
  cpm (Cop 1 Pulsing Concentration): 10,465 cpm
[1]; APC pre-pulsed 24 hours with Cop 1 40 μg (Batch II)
  cpm (Cop 1 Pulsing Concentration): 7,653 cpm
[1]; APC pre-pulsed 24 hours with Cop 1 80 μg (Batch II)
  cpm (Cop 1 Pulsing Concentration): 4,628 cpm
[2]; 10–100 μg/well, all concentrations tested
  inhibitory effect on the MLC: dose-dependent inhibition
[2]; Batch I
  concentration sufficient to achieve 50% inhibition of the proliferative responses: 10–25 μg/well
[2]; all strain combinations tested
  Maximum inhibition: 100%
